{"source": "paper PMC2954226", "about": "“Structure of the γ-D-glutamyl-L-diamino acid endopeptidase YkfC from Bacillus cereus in complex with L-Ala-γ-D-Glu: insights into substrate recognition by NlpC/P60 cysteine peptidases” (Acta Crystallographica Section F: Structural Biology and …, 2010)", "biological_target": "T1, BcYkfC (Bacillus cereus, UniProt Q736M3)", "T1 construct": "gene ykfC; signal peptide (residues 1-23) removed; N-terminal His tag cut by TEV leaving Gly0; selenomethionine protein from E. coli; SH3b1 (29-129), SH3b2 (130-207) and NlpC/P60 (208-333) domains; model 29-333; monomer", "T1 sequence (Q736M3 24-333)": "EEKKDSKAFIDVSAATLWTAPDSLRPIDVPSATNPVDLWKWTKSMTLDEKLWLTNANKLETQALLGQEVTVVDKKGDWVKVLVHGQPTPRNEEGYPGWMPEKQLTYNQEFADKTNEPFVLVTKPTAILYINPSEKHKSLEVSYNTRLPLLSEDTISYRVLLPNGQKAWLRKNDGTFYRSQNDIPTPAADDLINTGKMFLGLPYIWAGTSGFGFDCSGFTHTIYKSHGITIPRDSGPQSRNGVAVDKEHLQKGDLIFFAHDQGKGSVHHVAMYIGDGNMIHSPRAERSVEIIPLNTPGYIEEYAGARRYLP", "assay": "X-ray crystal structure, […] Å (SeMet MAD)", "format": "binding", "details": "ligand co-purified, most likely from E. coli expression host; S2-S1 site; catalytic Cys238 oxidized (OCS), enzyme inactive in the crystal; crystallized at pH 4.2, 277 K", "note": "Non-standard residues stand in square brackets, D forms with d. Residues, ends and D or L forms follow the SMILES beside them.", "data": [{"smiles": "C[C@H](N)C(=O)N[C@H](CCC(=O)O)C(=O)O", "note": "[L-Ala-γ-D-Glu] (H-Ala-[dE]-OH)", "values": [{"measurement": "X-ray crystal structure, 1.79 Å (SeMet MAD)", "value": "The dipeptide L-Ala-γ-D-Glu was identified from well defined electron density in the active site"}]}]}
